From the kinase profiling compilation of Christmann-Franck et al. (2016)

Legend:
Assay in all cases: KINOMEscan competition binding
Details in all cases: compound 10.0 µM
SRPK2 (human) = SRPK2 (human) (UniProt P78362)
RPS6KA2 KD2 (human) = RPS6KA2 KD2 (human) (UniProt Q15349)
KIT (human) = KIT (human) (UniProt P10721)
TNIK (human) = TNIK (human) (UniProt Q9UKE5)
CSNK1E (human) = CSNK1E (human) (UniProt P49674)
RIOK1 (human) = RIOK1 (human) (UniProt Q9BRS2)
[1] = system: EGFR (human), P00533 [747-751 del / S ins]
DAPK2 (human) = DAPK2 (human) (UniProt Q9UIK4)
BMP2K (human) = BMP2K (human) (UniProt Q9NSY1)
[2] = system: KIT (human), P10721 [V559D]
Chain of KIT (human), P10721 [V559D] (P10721 whole entry V559D, looked up): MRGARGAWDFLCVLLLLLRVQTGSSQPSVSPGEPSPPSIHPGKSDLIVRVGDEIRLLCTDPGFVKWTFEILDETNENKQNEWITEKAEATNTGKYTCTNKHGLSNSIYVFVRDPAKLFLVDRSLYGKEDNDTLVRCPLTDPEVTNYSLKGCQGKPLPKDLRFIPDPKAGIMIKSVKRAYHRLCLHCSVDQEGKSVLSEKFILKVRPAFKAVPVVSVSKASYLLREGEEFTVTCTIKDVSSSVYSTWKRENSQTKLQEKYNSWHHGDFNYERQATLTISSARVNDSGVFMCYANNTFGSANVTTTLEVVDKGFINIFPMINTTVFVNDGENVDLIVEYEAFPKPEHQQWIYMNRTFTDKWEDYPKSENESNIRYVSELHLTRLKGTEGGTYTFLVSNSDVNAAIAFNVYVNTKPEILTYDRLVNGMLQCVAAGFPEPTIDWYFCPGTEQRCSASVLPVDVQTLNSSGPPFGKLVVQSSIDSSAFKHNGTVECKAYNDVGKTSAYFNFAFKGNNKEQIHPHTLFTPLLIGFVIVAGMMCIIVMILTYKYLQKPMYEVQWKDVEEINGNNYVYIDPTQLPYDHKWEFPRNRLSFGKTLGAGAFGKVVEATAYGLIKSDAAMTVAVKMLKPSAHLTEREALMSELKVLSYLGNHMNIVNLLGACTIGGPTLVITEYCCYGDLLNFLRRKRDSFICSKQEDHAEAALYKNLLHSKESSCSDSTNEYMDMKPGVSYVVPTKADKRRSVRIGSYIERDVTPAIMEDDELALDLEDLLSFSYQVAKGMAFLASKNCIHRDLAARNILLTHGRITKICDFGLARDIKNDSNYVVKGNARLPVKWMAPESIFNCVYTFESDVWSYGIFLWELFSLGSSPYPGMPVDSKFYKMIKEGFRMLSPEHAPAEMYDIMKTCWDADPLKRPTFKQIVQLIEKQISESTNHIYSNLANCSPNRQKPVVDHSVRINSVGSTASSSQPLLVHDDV

ACVR2A (human) = ACVR2A (human) (UniProt P27037)
RIOK2 (human) = RIOK2 (human) (UniProt Q9BVS4)
MAP4K4 (human) = MAP4K4 (human) (UniProt O95819)
[3] = system: KIT (human), P10721 [D816V]
Chain of KIT (human), P10721 [D816V] (P10721 whole entry D816V, looked up): as the sequence (P10721 whole entry V559D, looked up) above, with D559V, D816V counted along it

BMPR1B (human) = BMPR1B (human) (UniProt O00238)
CDK7 (human) = CDK7 (human) (UniProt P50613)
CSNK2A1 (human) = CSNK2A1 (human) (UniProt P68400)
CSNK2A2 (human) = CSNK2A2 (human) (UniProt P19784)
TAOK1 (human) = TAOK1 (human) (UniProt Q7L7X3)
Chain of TAOK1 (human) (Q7L7X3 whole entry, looked up): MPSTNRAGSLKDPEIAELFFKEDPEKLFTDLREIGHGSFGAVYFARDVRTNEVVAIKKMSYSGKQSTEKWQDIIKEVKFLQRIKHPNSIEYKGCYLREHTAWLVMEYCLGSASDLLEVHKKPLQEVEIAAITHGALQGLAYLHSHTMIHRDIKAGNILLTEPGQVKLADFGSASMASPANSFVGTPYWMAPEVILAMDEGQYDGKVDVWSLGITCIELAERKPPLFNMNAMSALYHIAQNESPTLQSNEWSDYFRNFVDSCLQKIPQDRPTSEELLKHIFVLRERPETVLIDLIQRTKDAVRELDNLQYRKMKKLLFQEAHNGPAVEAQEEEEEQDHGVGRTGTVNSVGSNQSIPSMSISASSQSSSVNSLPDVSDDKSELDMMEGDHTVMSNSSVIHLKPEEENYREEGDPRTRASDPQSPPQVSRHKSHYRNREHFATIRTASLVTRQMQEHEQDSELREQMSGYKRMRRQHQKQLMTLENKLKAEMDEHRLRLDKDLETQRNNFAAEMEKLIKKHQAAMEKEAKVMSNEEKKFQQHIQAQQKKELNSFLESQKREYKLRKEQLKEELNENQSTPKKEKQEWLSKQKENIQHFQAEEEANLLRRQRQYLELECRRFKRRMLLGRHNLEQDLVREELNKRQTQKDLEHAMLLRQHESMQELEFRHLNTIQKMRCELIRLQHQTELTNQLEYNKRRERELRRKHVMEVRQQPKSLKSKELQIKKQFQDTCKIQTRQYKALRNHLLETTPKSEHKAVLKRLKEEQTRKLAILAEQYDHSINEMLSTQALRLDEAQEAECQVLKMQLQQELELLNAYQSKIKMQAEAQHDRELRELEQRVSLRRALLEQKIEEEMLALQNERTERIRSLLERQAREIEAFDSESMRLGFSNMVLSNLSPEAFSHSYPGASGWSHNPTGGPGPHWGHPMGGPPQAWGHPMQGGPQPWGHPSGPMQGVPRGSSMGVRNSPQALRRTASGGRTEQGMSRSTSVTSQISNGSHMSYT

PIP4K2B (human) = PIP4K2B (human) (UniProt P78356)
AURKB (human) = AURKB (human) (UniProt Q96GD4)
Chain of AURKB (human) (Q96GD4 whole entry, looked up): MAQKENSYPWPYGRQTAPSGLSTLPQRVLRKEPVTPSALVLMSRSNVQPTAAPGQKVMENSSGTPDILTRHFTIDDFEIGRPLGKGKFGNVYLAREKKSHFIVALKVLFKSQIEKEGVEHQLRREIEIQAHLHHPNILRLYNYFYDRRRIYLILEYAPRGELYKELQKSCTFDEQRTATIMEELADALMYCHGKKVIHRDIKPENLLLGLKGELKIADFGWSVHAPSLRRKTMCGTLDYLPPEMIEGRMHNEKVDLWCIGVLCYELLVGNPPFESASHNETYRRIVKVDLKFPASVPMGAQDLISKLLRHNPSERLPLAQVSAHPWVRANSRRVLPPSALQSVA

PIM2 (human) = PIM2 (human) (UniProt Q9P1W9)
[4] = system: EGFR (human), P00533 [G719S]
PHKG2 (human) = PHKG2 (human) (UniProt P15735)
Chain of PHKG2 (human) (P15735 whole entry, looked up): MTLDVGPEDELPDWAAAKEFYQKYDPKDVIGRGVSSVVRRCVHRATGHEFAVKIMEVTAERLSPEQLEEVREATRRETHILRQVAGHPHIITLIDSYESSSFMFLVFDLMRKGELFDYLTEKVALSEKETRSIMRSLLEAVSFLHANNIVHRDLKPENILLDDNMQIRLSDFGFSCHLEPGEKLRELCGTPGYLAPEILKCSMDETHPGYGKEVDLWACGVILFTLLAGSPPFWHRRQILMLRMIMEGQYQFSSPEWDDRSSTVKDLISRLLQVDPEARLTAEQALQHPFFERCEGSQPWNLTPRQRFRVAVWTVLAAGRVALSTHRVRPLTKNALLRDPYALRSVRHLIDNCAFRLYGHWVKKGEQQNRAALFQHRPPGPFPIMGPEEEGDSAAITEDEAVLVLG

GAK (human) = GAK (human) (UniProt O14976)
MAP2K4 (human) = MAP2K4 (human) (UniProt P45985)
PIK3CG (human) = PIK3CG (human) (UniProt P48736)
DYRK1B (human) = DYRK1B (human) (UniProt Q9Y463)
TTK (human) = TTK (human) (UniProt P33981)
Chain of TTK (human) (P33981 whole entry, looked up): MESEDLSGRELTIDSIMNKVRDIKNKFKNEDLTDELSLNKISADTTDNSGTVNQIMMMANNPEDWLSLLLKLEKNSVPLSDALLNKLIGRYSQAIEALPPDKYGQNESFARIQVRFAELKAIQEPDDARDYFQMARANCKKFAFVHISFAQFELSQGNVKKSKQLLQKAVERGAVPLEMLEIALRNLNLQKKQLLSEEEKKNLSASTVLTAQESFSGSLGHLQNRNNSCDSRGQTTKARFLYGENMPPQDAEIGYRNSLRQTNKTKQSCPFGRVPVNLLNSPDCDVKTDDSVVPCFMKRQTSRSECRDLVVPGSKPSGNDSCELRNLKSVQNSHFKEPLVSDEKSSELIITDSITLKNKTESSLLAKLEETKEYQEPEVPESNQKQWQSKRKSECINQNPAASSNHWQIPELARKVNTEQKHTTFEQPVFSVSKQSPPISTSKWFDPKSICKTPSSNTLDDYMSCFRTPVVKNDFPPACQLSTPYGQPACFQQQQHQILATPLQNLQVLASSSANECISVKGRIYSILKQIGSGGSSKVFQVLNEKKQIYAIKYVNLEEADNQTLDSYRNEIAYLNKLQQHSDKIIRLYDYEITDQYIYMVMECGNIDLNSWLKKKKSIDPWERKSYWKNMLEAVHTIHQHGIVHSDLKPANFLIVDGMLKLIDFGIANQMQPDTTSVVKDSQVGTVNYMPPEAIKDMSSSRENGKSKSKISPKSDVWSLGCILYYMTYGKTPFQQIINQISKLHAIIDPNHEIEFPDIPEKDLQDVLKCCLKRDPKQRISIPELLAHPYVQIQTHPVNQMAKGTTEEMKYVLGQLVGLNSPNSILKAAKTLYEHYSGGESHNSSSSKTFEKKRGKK

PIM3 (human) = PIM3 (human) (UniProt Q86V86)
CSNK1G1 (human) = CSNK1G1 (human) (UniProt Q9HCP0)
Chain of CSNK1G1 (human) (Q9HCP0 whole entry, looked up): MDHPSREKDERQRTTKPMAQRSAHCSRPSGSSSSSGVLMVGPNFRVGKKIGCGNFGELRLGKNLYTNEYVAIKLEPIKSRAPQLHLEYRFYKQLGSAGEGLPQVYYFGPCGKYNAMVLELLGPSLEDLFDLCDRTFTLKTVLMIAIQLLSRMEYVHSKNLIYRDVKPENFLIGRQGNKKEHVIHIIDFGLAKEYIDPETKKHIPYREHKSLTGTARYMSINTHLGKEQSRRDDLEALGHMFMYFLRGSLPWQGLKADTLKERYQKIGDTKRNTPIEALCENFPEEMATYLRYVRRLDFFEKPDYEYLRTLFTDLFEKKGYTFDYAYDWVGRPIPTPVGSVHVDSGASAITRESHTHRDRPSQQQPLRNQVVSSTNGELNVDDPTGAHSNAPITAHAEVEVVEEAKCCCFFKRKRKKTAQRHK

[5] = system: KIT (human), P10721 [V559D/V654A]
Chain of KIT (human), P10721 [V559D/V654A] (P10721 whole entry V559D/V654A, looked up): as the sequence (P10721 whole entry V559D, looked up) above, with V654A counted along it

MYLK (human) = MYLK (human) (UniProt Q15746)
MAPK15 (human) = MAPK15 (human) (UniProt Q8TD08)
STK17B (human) = STK17B (human) (UniProt O94768)
Chain of STK17B (human) (O94768 whole entry, looked up): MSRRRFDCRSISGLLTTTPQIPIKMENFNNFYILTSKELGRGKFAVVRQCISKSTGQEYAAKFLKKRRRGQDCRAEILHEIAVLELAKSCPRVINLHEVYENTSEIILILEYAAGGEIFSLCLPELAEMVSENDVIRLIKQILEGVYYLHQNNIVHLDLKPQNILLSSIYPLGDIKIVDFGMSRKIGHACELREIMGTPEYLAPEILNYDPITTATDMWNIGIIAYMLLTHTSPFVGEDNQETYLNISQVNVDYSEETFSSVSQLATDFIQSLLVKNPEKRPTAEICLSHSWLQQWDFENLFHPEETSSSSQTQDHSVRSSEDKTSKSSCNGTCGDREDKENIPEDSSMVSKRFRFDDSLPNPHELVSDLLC

MINK1 (human) = MINK1 (human) (UniProt Q8N4C8)
[6] = system: FLT3 (human), P36888 [N841I]
RPS6KA5 KD2 (human) = RPS6KA5 KD2 (human) (UniProt O75582)
TLK1 (human) = TLK1 (human) (UniProt Q9UKI8)
STK24 (human) = STK24 (human) (UniProt Q9Y6E0)
SRPK3 (human) = SRPK3 (human) (UniProt Q9UPE1)
DAPK3 (human) = DAPK3 (human) (UniProt O43293)

Chain of CSNK1E (human) (P49674 whole entry, looked up): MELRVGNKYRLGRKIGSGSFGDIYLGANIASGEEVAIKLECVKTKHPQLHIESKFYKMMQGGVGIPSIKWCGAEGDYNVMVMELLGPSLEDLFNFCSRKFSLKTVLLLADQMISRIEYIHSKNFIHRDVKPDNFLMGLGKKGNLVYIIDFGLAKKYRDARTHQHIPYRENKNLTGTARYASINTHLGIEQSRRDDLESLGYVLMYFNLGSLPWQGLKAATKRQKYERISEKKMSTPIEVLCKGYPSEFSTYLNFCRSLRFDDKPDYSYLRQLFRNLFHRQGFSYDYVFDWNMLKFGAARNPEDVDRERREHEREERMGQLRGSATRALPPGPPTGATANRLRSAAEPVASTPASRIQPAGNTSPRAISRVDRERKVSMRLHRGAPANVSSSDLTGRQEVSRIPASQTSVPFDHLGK
Chain of KIT (human) (P10721 whole entry, looked up): as the sequence (P10721 whole entry V559D, looked up) above, with D559V counted along it

CN1C(=O)c2ccccc2N(C)c2nc(Nc3ccc(N4CCC(O)CC4)cc3)ncc21
kinase still bound, per cent of control (SRPK2 (human)): 100%
kinase still bound, per cent of control (RPS6KA2 KD2 (human)): 91%
kinase still bound, per cent of control (KIT (human)): 66%
kinase still bound, per cent of control (TNIK (human)): 83%
kinase still bound, per cent of control (CSNK1E (human)): 100%
kinase still bound, per cent of control (RIOK1 (human)): 90%
kinase still bound, per cent of control [1]: 100%
kinase still bound, per cent of control (DAPK2 (human)): 100%
kinase still bound, per cent of control (BMP2K (human)): 43%
kinase still bound, per cent of control [2]: 80%
kinase still bound, per cent of control (ACVR2A (human)): 90%
kinase still bound, per cent of control (RIOK2 (human)): 63%
kinase still bound, per cent of control (MAP4K4 (human)): 85%
kinase still bound, per cent of control [3]: 69%
kinase still bound, per cent of control (BMPR1B (human)): 13%
kinase still bound, per cent of control (CDK7 (human)): 60%
kinase still bound, per cent of control (CSNK2A1 (human)): 86%
kinase still bound, per cent of control (CSNK2A2 (human)): 58%
kinase still bound, per cent of control (TAOK1 (human)): 0.9%
kinase still bound, per cent of control (PIP4K2B (human)): 75%
kinase still bound, per cent of control (AURKB (human)): 1.4%
kinase still bound, per cent of control (PIM2 (human)): 100%
kinase still bound, per cent of control [4]: 100%
kinase still bound, per cent of control (PHKG2 (human)): 100%
kinase still bound, per cent of control (GAK (human)): 37%
kinase still bound, per cent of control (MAP2K4 (human)): 74%
kinase still bound, per cent of control (PIK3CG (human)): 4.2%
kinase still bound, per cent of control (DYRK1B (human)): 100%
kinase still bound, per cent of control (TTK (human)): 78%
kinase still bound, per cent of control (PIM3 (human)): 100%
kinase still bound, per cent of control (CSNK1G1 (human)): 73%
kinase still bound, per cent of control [5]: 58%
kinase still bound, per cent of control (MYLK (human)): 63%
kinase still bound, per cent of control (MAPK15 (human)): 100%
kinase still bound, per cent of control (STK17B (human)): 79%
kinase still bound, per cent of control (MINK1 (human)): 100%
kinase still bound, per cent of control [6]: 80%
kinase still bound, per cent of control (RPS6KA5 KD2 (human)): 100%
kinase still bound, per cent of control (TLK1 (human)): 69%
kinase still bound, per cent of control (STK24 (human)): 82%
kinase still bound, per cent of control (SRPK3 (human)): 84%
kinase still bound, per cent of control (DAPK3 (human)): 100%

CN1CCN(c2ccc(C(=O)Nc3ncc4c(n3)N(C)c3ccccc3C(=O)N4C)cc2)CC1
kinase still bound, per cent of control (SRPK2 (human)): 100%
kinase still bound, per cent of control (RPS6KA2 KD2 (human)): 64%
kinase still bound, per cent of control (KIT (human)): 74%
kinase still bound, per cent of control (TNIK (human)): 100%
kinase still bound, per cent of control (CSNK1E (human)): 89%
kinase still bound, per cent of control (RIOK1 (human)): 80%
kinase still bound, per cent of control [1]: 86%
kinase still bound, per cent of control (DAPK2 (human)): 100%
kinase still bound, per cent of control (BMP2K (human)): 100%
kinase still bound, per cent of control [2]: 89%
kinase still bound, per cent of control (ACVR2A (human)): 100%
kinase still bound, per cent of control (RIOK2 (human)): 85%
kinase still bound, per cent of control (MAP4K4 (human)): 100%
kinase still bound, per cent of control [3]: 100%
kinase still bound, per cent of control (BMPR1B (human)): 100%
kinase still bound, per cent of control (CDK7 (human)): 74%
kinase still bound, per cent of control (CSNK2A1 (human)): 100%
kinase still bound, per cent of control (CSNK2A2 (human)): 78%
kinase still bound, per cent of control (TAOK1 (human)): 75%
kinase still bound, per cent of control (PIP4K2B (human)): 100%
kinase still bound, per cent of control (AURKB (human)): 74%
kinase still bound, per cent of control (PIM2 (human)): 100%
kinase still bound, per cent of control [4]: 95%
kinase still bound, per cent of control (PHKG2 (human)): 90%
kinase still bound, per cent of control (GAK (human)): 100%
kinase still bound, per cent of control (MAP2K4 (human)): 86%
kinase still bound, per cent of control (PIK3CG (human)): 70%
kinase still bound, per cent of control (DYRK1B (human)): 100%
kinase still bound, per cent of control (TTK (human)): 95%
kinase still bound, per cent of control (PIM3 (human)): 100%
kinase still bound, per cent of control (CSNK1G1 (human)): 100%
kinase still bound, per cent of control [5]: 100%
kinase still bound, per cent of control (MYLK (human)): 92%
kinase still bound, per cent of control (MAPK15 (human)): 100%
kinase still bound, per cent of control (STK17B (human)): 100%
kinase still bound, per cent of control (MINK1 (human)): 100%
kinase still bound, per cent of control [6]: 78%
kinase still bound, per cent of control (RPS6KA5 KD2 (human)): 100%
kinase still bound, per cent of control (TLK1 (human)): 86%
kinase still bound, per cent of control (STK24 (human)): 100%
kinase still bound, per cent of control (SRPK3 (human)): 100%
kinase still bound, per cent of control (DAPK3 (human)): 100%

CN1C(=O)c2ccccc2N(C)c2nc(NS(=O)(=O)c3ccc(N)cc3)ncc21
kinase still bound, per cent of control (SRPK2 (human)): 100%
kinase still bound, per cent of control (RPS6KA2 KD2 (human)): 93%
kinase still bound, per cent of control (KIT (human)): 76%
kinase still bound, per cent of control (TNIK (human)): 100%
kinase still bound, per cent of control (CSNK1E (human)): 100%
kinase still bound, per cent of control (RIOK1 (human)): 66%
kinase still bound, per cent of control [1]: 99%
kinase still bound, per cent of control (DAPK2 (human)): 94%
kinase still bound, per cent of control (BMP2K (human)): 100%
kinase still bound, per cent of control [2]: 100%
kinase still bound, per cent of control (ACVR2A (human)): 100%
kinase still bound, per cent of control (RIOK2 (human)): 71%
kinase still bound, per cent of control (MAP4K4 (human)): 100%
kinase still bound, per cent of control [3]: 100%
kinase still bound, per cent of control (BMPR1B (human)): 100%
kinase still bound, per cent of control (CDK7 (human)): 91%
kinase still bound, per cent of control (CSNK2A1 (human)): 100%
kinase still bound, per cent of control (CSNK2A2 (human)): 76%
kinase still bound, per cent of control (TAOK1 (human)): 60%
kinase still bound, per cent of control (PIP4K2B (human)): 100%
kinase still bound, per cent of control (AURKB (human)): 100%
kinase still bound, per cent of control (PIM2 (human)): 100%
kinase still bound, per cent of control [4]: 100%
kinase still bound, per cent of control (PHKG2 (human)): 78%
kinase still bound, per cent of control (GAK (human)): 100%
kinase still bound, per cent of control (MAP2K4 (human)): 61%
kinase still bound, per cent of control (PIK3CG (human)): 96%
kinase still bound, per cent of control (DYRK1B (human)): 100%
kinase still bound, per cent of control (TTK (human)): 100%
kinase still bound, per cent of control (PIM3 (human)): 100%
kinase still bound, per cent of control (CSNK1G1 (human)): 100%
kinase still bound, per cent of control [5]: 100%
kinase still bound, per cent of control (MYLK (human)): 82%
kinase still bound, per cent of control (MAPK15 (human)): 99%
kinase still bound, per cent of control (STK17B (human)): 100%
kinase still bound, per cent of control (MINK1 (human)): 100%
kinase still bound, per cent of control [6]: 90%
kinase still bound, per cent of control (RPS6KA5 KD2 (human)): 100%
kinase still bound, per cent of control (TLK1 (human)): 100%
kinase still bound, per cent of control (STK24 (human)): 100%
kinase still bound, per cent of control (SRPK3 (human)): 100%
kinase still bound, per cent of control (DAPK3 (human)): 95%
